Columns and labels:
Assay type in all cases: cell-based
human TLR7 = molecular target: T1, human TLR7 (Homo sapiens, UniProt Q9NYK1); assay: TLR7 inhibition reporter assay (HEK-Blue, SEAP); details: HEK-Blue cells overexpressing human TLR7, gardiquimod 7.5 μM, 22 hour incubation
T1 construct: host or cells: HEK-Blue cells
T1 sequence (Q9NYK1 27-1049): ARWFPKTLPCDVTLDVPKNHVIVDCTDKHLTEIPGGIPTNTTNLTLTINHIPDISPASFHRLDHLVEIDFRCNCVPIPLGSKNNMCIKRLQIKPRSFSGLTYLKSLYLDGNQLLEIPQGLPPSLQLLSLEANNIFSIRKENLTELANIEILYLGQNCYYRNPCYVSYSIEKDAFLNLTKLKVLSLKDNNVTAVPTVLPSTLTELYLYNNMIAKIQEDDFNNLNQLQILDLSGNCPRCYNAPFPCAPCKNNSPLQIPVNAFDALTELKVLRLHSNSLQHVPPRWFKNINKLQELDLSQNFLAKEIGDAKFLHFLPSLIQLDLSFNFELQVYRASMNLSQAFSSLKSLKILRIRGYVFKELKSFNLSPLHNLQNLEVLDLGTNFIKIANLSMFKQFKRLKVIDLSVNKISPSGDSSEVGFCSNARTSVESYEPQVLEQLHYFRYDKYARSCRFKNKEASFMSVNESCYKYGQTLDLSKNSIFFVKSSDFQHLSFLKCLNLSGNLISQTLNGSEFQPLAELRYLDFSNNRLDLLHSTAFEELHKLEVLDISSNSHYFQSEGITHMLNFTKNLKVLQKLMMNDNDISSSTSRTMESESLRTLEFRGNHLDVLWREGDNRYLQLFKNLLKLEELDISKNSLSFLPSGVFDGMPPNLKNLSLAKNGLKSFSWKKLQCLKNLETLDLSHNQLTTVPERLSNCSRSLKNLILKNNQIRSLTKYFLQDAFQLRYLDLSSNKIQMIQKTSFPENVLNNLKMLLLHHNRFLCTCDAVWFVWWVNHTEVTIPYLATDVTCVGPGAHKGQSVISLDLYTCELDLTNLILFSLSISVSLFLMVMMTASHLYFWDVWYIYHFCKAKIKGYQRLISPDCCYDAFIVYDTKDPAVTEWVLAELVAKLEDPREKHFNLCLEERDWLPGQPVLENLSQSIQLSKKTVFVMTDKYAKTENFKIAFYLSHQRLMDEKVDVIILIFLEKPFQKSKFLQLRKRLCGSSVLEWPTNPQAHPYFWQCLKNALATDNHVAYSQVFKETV
How it was run: (§1)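 Human TLR7/8/9 HEK-Blue reporter lines; dose range 0.05 nM–50 μM; 30 min RT preincubation; stimulus gardiquimod 7.5 μM / R848 15.9 μM / ODN2006 5 nM respectively; 22 h, 37 °C; SEAP detected colorimetrically.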

human TLR8 = molecular target: T2, human TLR8 (Homo sapiens, UniProt Q9NR97); assay: TLR8 inhibition reporter assay (HEK-Blue, SEAP); details: HEK-Blue cells overexpressing human TLR8, R848 15.9 μM, 22 hour incubation
T2 construct: host or cells: HEK-Blue cells
T2 sequence (Q9NR97 27-1041): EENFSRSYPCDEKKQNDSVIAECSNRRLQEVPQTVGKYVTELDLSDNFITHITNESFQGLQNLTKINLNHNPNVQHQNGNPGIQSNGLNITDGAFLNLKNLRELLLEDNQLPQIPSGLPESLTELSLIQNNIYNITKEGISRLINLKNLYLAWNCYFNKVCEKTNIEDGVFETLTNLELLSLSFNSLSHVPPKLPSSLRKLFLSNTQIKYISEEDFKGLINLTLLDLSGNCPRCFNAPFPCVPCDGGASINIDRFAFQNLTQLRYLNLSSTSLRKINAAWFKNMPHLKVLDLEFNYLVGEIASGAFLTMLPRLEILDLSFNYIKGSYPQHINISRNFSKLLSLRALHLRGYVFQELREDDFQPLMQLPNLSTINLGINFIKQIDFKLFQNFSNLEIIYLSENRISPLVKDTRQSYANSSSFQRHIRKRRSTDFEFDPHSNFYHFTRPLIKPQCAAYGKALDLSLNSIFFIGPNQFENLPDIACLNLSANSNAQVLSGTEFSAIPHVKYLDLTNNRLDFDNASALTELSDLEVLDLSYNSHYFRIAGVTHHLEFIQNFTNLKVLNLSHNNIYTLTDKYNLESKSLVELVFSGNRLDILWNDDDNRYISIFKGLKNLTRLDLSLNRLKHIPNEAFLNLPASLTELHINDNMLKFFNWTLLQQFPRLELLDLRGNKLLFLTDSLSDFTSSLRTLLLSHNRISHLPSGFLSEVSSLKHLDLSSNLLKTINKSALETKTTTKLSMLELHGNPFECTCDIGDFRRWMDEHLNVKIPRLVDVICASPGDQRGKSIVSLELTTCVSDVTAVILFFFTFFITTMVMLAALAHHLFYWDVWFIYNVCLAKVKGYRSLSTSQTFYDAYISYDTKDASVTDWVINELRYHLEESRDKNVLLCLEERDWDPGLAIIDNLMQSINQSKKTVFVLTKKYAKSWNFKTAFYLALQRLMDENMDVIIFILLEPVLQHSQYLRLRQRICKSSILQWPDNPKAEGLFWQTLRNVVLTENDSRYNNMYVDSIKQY
How it was run: as §1

human TLR9 = molecular target: T3, human TLR9 (Homo sapiens, UniProt Q9NR96); assay: TLR9 inhibition reporter assay (HEK-Blue, SEAP); details: HEK-Blue cells overexpressing human TLR9, ODN2006 5 nM, 22 hour incubation
T3 construct: host or cells: HEK-Blue cells
T3 sequence (Q9NR96 26-1032): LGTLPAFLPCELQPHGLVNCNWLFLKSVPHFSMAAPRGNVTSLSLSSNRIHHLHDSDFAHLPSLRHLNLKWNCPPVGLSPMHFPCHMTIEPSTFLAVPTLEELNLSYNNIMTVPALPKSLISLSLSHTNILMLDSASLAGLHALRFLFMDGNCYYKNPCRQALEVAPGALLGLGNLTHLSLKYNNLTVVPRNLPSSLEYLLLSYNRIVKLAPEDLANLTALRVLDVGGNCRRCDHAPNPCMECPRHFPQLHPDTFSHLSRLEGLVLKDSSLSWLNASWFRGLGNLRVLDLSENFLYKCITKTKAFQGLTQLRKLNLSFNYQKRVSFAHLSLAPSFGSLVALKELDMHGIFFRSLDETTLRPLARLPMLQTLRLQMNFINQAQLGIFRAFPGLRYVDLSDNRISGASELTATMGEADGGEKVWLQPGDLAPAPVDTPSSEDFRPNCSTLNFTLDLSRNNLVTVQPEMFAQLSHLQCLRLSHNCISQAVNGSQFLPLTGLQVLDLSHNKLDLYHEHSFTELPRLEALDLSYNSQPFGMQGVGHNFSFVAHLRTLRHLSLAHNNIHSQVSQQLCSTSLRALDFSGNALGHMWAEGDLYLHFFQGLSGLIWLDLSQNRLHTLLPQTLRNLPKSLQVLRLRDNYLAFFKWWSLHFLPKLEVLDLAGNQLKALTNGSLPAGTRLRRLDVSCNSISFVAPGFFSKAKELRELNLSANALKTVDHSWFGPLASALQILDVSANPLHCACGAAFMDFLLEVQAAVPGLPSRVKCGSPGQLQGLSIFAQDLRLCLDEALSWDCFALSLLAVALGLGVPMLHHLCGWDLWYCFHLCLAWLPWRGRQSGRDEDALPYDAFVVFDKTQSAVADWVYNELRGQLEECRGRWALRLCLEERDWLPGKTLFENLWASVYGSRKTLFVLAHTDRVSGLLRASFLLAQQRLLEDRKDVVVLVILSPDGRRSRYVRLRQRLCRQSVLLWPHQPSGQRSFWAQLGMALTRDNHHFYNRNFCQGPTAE
How it was run: as §1

IC50 (human TLR7) [nM]	IC50 (human TLR8) [nM]	IC50 (human TLR9) [nM]	Structure (SMILES)
5.7	21.6	1110	Cc1c(-c2[nH]c3ccc(C4CCN(Cc5cn(C)nn5)CC4)cc3c2C(C)C)cn2cnnc2c1Cl [Example 84, 8-chloro-6-(3-isopropyl-5-(1-((1-methyl-1H-1,2,3-triazol-4-yl)methyl)piperidin-4-yl)-1H-indol-2-yl)-7-methyl-[1,2,4]triazolo[4,3-a]pyridine]
1.9	13.5	2570	Cc1c(-c2[nH]c3ccc(C4CCN(CCCC(F)(F)F)CC4)cc3c2C(C)C)cn2cnnc2c1Cl [Example 48, 8-chloro-6-(3-isopropyl-5-(1-(4,4,4-trifluorobutyl)piperidin-4-yl)-1H-indol-2-yl)-7-methyl-[1,2,4]triazolo[4,3-a]pyridine]
12.3	12.4	1440	Cc1c(-c2[nH]c3ccc(C4CCN(C5CCC(F)(F)CC5)CC4)cc3c2C(C)C)cn2cnnc2c1C [Example 101, 6-(5-(1-(4,4-difluorocyclohexyl)piperidin-4-yl)-3-isopropyl-1H-indol-2-yl)-7,8-dimethyl-[1,2,4] triazolo[4,3-a]pyridine]
0.4	3.4	454	Cc1cc(-c2[nH]c3ccc(C4CCN(CCO)CC4)cc3c2C(C)C)cn2cnnc12 [Example 28, 2-(4-(3-isopropyl-2-(8-methyl-[1,2,4]triazolo[4,3-a]pyridin-6-yl)-1H-indol-5-yl)piperidin-1-yl) ethan-1-ol]
22.8	140	902	CC(C)c1c(-c2ccc3nncn3c2)[nH]c2ccc(C3CCNCC3)cc12 [Example 1, 6-(3-isopropyl-5-(piperidin-4-yl)-1H-indol-2-yl)-[1,2,4]triazolo[4,3-a]pyridine]
0.6	11.9	914	COc1cc(-c2[nH]c3ccc(C4CCN(C5CCOC5)CC4)cc3c2C(C)C)cn2cnnc12 (stereo not drawn) [Example 94, 6-(3-isopropyl-5-(1-(tetrahydrofuran-3-yl)piperidin-4-yl)-1H-indol-2-yl)-8-methoxy-[1,2,4]triazolo[4,3-a]pyridine]
1.3	4.6	1780	Cc1c(-c2[nH]c3ccc(C4CCN(C5CCOCC5)CC4)cc3c2C(C)C)cn2cnnc2c1C [Example 78, 6-(3-isopropyl-5-(1-(tetrahydro-2H-pyran-4-yl)piperidin-4-yl)-1H-indol-2-yl)-7,8-dimethyl-[1,2,4]triazolo[4,3-a]pyridine]
1.9	33.4	344	COc1cc(-c2[nH]c3ccc(C4CCN(C5CCOCC5)CC4)cc3c2C(C)C)cn2cnnc12 [Example 88, 6-(3-isopropyl-5-(1-(tetrahydro-2H-pyran-4-yl)piperidin-4-yl)-1H-indol-2-yl)-8-methoxy-[1,2,4]triazolo[4,3-a]pyridine]
9.1	4.6	1430	Cc1cc(-c2[nH]c3ccc(C4CCN(CC(=O)N(C)C)CC4)cc3c2C(C)C)cn2c(C)nnc12 [Example 34, 2-(4-(2-(3,8-dimethyl-[1,2,4]triazolo[4,3-a]pyridin-6-yl)-3-isopropyl-1H-indol-5-yl)piperidin-1-yl)-N,N-dimethylacetamide]
1.5	57	1090	Cc1c(-c2[nH]c3ccc(C4CCN(CC#N)CC4)cc3c2C(C)C)cn2cnnc2c1Cl [Example 50, 2-(4-(2-(8-chloro-7-methyl-[1,2,4]triazolo[4,3-a]pyridin-6-yl)-3-isopropyl-1H-indol-5-yl)piperidin-1-yl)acetonitrile]
20.6	121	7420	Cc1c(-c2[nH]c3ccc(C4CC(C)N(CC(=O)N(C)C)C(C)C4)cc3c2C(C)C)cn2cnnc2c1C (stereo not drawn) [Example 112, 2-(4-(2-(7,8-dimethyl-[1,2,4]triazolo[4,3-a]pyridin-6-yl)-3-isopropyl-1H-indol-5-yl)-2,6-dimethylpiperidin-1-yl)-N,N-dimethylacetamide]
